In patent US20110028566A1, “COMPOSITIONS AND PRODUCTS CONTAINING CYCLOALIPHATIC DIOL ANTIMICROBIAL AGENTS AND METHODS OF USING THE COMPOSITIONS AND PRODUCTS” (EASTMAN CHEMICAL COMPANY, priority 2009, published 2011):
Where “and” joins values, the source holds several entries; their conditions need not be identical. Equal values may be shown once.

Experiments:
Assay type in all cases: cell-based
[1] = tested on: Aspergillus niger ATCC 16404; assay: MIC determination and synergy testing (Kull synergy index), microplate; conditions: for QB, MIC of CG alone / QB, MIC of PE alone: A. niger; for QB, MIC of PE alone: plates 122C, 242C
Description: (§1) The test cultures are listed in Table 7 along with the incubation temperatures used for growth and minimum inhibitory concentration (MIC) testing. […] C. albicans was cultured in Sabouraud dextrose broth (SDB) for approximately 44-52 hours for preparation of inoculum. A. niger was cultured on Sabouraud dextrose agar (SDA) for 3-4 days until there was confluent growth and visible spore formation. Spores were harvested from the SDA plates by flooding the surface of the plate with 5-10 mL of phosphate-buffered saline (PBS) and gently spreading the liquid across the surface of the plate with a sterile T-shaped plastic spreader (Copan Diagnostics) until there was a well-mixed suspension of spores. The resulting spore suspension was collected using a serological pipette and stored at 2-8° C. until use.
(§2) Inoculum concentration was determined by dilution plating of the cultures or spore suspension. A serial dilution in PBS was made to 10^−8 for the bacterial cultures or 10^−5 for the fungal cultures. Fifty or 100 μL of the final dilution was spread on two Trypticase-soy agar (TSA) plates for bacteria or two SDA plates for fungi. After 24 to 48 hours plates were counted and the concentrations used in each experiment were calculated.
The A. niger spore suspensions were concentrated to a level of 1-2×10^8 spores/mL by centrifugation and resuspension in a portion of the resulting supernatant.
(§3) The antimicrobial agents tested for synergy along with the respective diluents and working stock solution concentrations are shown below. For determination of MIC ranges, individual antimicrobial agent stock solutions were added to sterile medium to yield the highest level test concentrations, and then serially diluted in the medium to prepare the range of test concentrations. For synergy testing individual test concentrations were prepared in sterile medium, and then blended to form the desired combinations.
(§4) MICs were determined using a high-throughput microplate method. Individual antimicrobial agents were added to TSB (pH 7.3) for bacterial testing or SDB (pH 5.6) for fungal testing at the highest concentration to be tested. A serial dilution series was prepared at a dilution ratio of 1:1.3333 such that a one log range was covered in nine dilutions. Two-hundred microliters of the diluted antimicrobial agents were dispensed into four wells each of a sterile, 96-well, flat-bottom microplate (Nalge Nunc International). Four additional wells of the highest concentration were dispensed to serve as uninoculated high-level controls. Eight additional wells containing only broth medium were also prepared, four to serve as negative controls and four as positive controls. Three wells of each antimicrobial agent dilution were inoculated with one of the test strains in Table 7. The final well of each antimicrobial agent dilution was left uninoculated to serve as a control (and means of compensating) for any absorbance/turbidity due to the test compounds.
Microplates were inoculated using the cultures or spore suspensions prepared as described above. The S. aureus cultures were used undiluted, while the E. coli and P. aeruginosa cultures were used either undiluted or after a 1:2 dilution in sterile TSB. The C. albicans cultures were used either undiluted or following a 2-fold concentration by centrifugation. One of two means of inoculation was used to deliver a final concentration of approximately 10^5 colony-forming units (CFU)/mL of C. albicans, 10^5 spores/mL of A. niger, or 10^6 CFU/mL of bacteria. The primary method used a stainless steel pin replicator (Nalge Nunc International) mounted on a hand-operated bench-top press (Schmidt Technology Corporation) fitted with a custom-built microplate holder to dispense one microliter of each inoculum from a “master” plate containing 50-100 μL of culture into the wells of the test plate. The pin replicator was sterilized before and between inoculations by immersing in ethanol and flaming. […]

[2] = tested on: Pseudomonas aeruginosa ATCC 27853; assay: as above; conditions: for QB, MIC of CG alone: P. aeruginosa, plate 169E
Description: as §1, §2, §3, §4
(§5) Microplates were inoculated using the cultures or spore suspensions prepared as described above. The S. aureus cultures were used undiluted, while the E. coli and P. aeruginosa cultures were used either undiluted or after a 1:2 dilution in sterile TSB. The C. albicans cultures were used either undiluted or following a 2-fold concentration by centrifugation. One of two means of inoculation was used to deliver a final concentration of approximately 10^5 colony-forming units (CFU)/mL of C. albicans, 10^5 spores/mL of A. niger, or 10^6 CFU/mL of bacteria. The primary method used a stainless steel pin replicator (Nalge Nunc International) mounted on a hand-operated bench-top press (Schmidt Technology Corporation) fitted with a custom-built microplate holder to dispense one microliter of each inoculum from a “master” plate containing 50-100 μL of culture into the wells of the test plate. The pin replicator was sterilized before and between inoculations by immersing in ethanol and flaming. The alternative method of inoculation was by directly pipetting 20 μL of a 1:20 dilution of each culture or spore suspension into the appropriate wells of the test plates.

[3] = tested on: Staphylococcus aureus ATCC 25923; assay: as above; conditions: for QB, MIC of CG alone: plate 125D
Description: as §1, §2, §3, §4, §5

[4] = tested on: Candida albicans ATCC 10231; assay: as above; conditions: for QB, MIC of MP alone: plate 128B; for QB, MIC of PE alone: plates 116B, 240B, 252B
Description: as §1, §2, §3, §4, §5

[5] = tested on: Corynebacterium xerosis ATCC #373; assay: Synergy testing in brain heart infusion media, 96-well plates; conditions: for % EHG / SI: CHDM with EHG; for % EHG: relative to EHG alone; for QB/b (EHG): inhibitory concentration of EHG alone or in combination with CHDM, plate EX194-195-EHG-Syn1; for SI: synergy index
Description: as §4
The individual antimicrobial agents listed in Table 8 were tested in combination with CHDM. The MIC values determined in the individual antimicrobial agent testing described above were used to establish a target MIC. In each experiment, MIC values for the individual antimicrobial agents and CHDM were determined in order to eliminate any variability due to comparison of data from different dates. Testing was done over a range of four concentrations separated by a factor of 1.3333 as described above. The four concentrations were the target MIC plus one dilution level higher and two dilution levels lower than the target. Combinations of antimicrobial agents and CHDM were made at 50% of the target MIC values and the higher and lower individual levels. Additionally, 50% level series were also tested with the antimicrobial agent or CHDM at one dilution level lower than the target level. The method of Kull et. al. (F. C. Kull et al., Applied Microbiology, 9, p 538-541 (1961)) was used to determine whether there was synergistic activity between CHDM and each antimicrobial agent for inhibition of each of the five microbes. MICs for the individually-tested CHDM and antimicrobial agent, as well as the concentration of CHDM and antimicrobial agent in the combination MIC were used to calculate a synergy index (SI) according to the equation: […]
where Qa and Qb are the minimum inhibitory concentrations for CHDM and a antimicrobial agent, respectively, when tested independently, and QA and QB are the concentrations of CHDM and a antimicrobial agent, respectively, in combination at an inhibitory concentration. Accordingly, synergy is defined as a SI less than one.
Experiments were also conducted using Corynebacterium xerosis, which is a bacterium known to cause body odor. […] The Corynebacterium xerosis bacterium used in this example was ATCC #373. The seed culture was grown in brain heart infusion medium. Assays were performed in brain heart infusion media in 96-well plates as described in Example 2. The brain heart infusion medium was at a pH of about 7.4. All growth was conducted at 37° C.

[6] = tested on: Escherichia coli ATCC 25922; assay: MIC determination and synergy testing (Kull synergy index), microplate; conditions: E. coli; for QB, MIC of MP alone: plate 108A; for QB, MIC of PE alone: plates 105A, 213A, 223A
Description: as §1, §2, §3, §4, §5

[7] = C. albicans, day 2 of incubation
[8] = C. albicans, day 3 of incubation

## Cn1sccc1=O [MIT, Methylisothiazolinone, reference compound]
[1]; MIT: MIC alone (QB) or conc. in combination with CHDM (b), plate 193C, day 2
  QB/b: 0.04
[1]; MIT: MIC alone (QB) or conc. in combination with CHDM (b), plate 193C, day 3
  QB/b: 0.03
[1]; MIT: MIC alone (QB) or conc. in combination with CHDM (b), plate 214C, day 2
  QB/b: 0.04
[1]; MIT: MIC alone (QB) or conc. in combination with CHDM (b), plate 214C, day 3
  QB/b: 0.04
[2]; Kull synergy index, synergistic when at least two results SI<1
  Synergism of antimicrobial agent in combination with 1,4-CHDM for P. aeruginosa (in words; in the 12th table the cell names the organism and table number): P. aeruginosa (26)
[2]; MIT: MIC alone (QB) or conc. in combination with CHDM (b), plate 147E, day 1
  QB/b: 0.00053
[2]; MIT: MIC alone (QB) or conc. in combination with CHDM (b), plate 147E, day 2
  QB/b: 0.00093
[2]; MIT: MIC alone (QB) or conc. in combination with CHDM (b), plate 210E, day 1
  QB/b: 0.0006
[2]; MIT: MIC alone (QB) or conc. in combination with CHDM (b), plate 210E, day 2
  QB/b: 0.001
[2]; MIT: MIC alone (QB) or conc. in combination with CHDM (b), plate 249E, day 1
  QB/b: 0.00048
[2]; MIT: MIC alone (QB) or conc. in combination with CHDM (b), plate 249E, day 2
  QB/b: 0.0009
[3]; MIT: MIC alone (QB) or conc. in combination with CHDM (b), plate 137D, day 2
  QB/b: 0.002
[4]; MIT: MIC alone (QB) or conc. in combination with CHDM (b), plate 162B, day 3
  QB/b: 0.012
[4]; MIT: MIC alone (QB) or conc. in combination with CHDM (b), plate 200B, day 2
  QB/b: 0.021
[4]; MIT: MIC alone (QB) or conc. in combination with CHDM (b), plate 200B, day 3
  QB/b: 0.021

## CCCCC(CC)COCC(O)CO (centres unmarked) [EHG, ethylhexyl glycerin, reference compound]
[5]; Day 2
  % EHG: 100.0%
  QB/b (EHG): 0.107
  SI: 1.00
[5]; Day 3
  % EHG: 100.0%
  QB/b (EHG): 0.080
  SI: 1.00

## CCCCCCC(O)CO (centres unmarked) [Caprylyl glycol (CG)]
[1]; day 2 of incubation, plates 123C, 217C
  QB, MIC of CG alone: 0.17 weight percent and 0.10 weight percent
[1]; day 3 of incubation, plate 123C
  QB, MIC of CG alone: 0.13 weight percent
[2]; day 1 of incubation
  QB, MIC of CG alone: 0.23 weight percent
[2]; day 2 of incubation
  QB, MIC of CG alone: 0.30 weight percent
[2]; day 3 of incubation
  QB, MIC of CG alone: 0.30 weight percent
[3]; S. aureus, day 1 of incubation
  QB, MIC of CG alone: 0.24 weight percent
[3]; S. aureus, day 2 of incubation
  QB, MIC of CG alone: 0.32 weight percent
[4]; C. albicans, day 3 of incubation, plates 117B, 254B
  QB, MIC of CG alone: 0.11 weight percent and 0.22 weight percent

## COC(=O)c1ccc(O)cc1 [Methylparaben (MP)]
[6]; day 1 of incubation
  QB, MIC of MP alone: 0.112 weight percent
[6]; day 2 of incubation
  QB, MIC of MP alone: 0.112 weight percent
[4]; [7]
  QB, MIC of MP alone: 0.060 weight percent
[4]; [8]
  QB, MIC of MP alone: 0.080 weight percent

## OCCOc1ccccc1 [Phenoxyethanol (PE)]
[1]; day 2 of incubation
  QB, MIC of PE alone: 0.24 weight percent and 0.30 weight percent
[1]; day 3 of incubation
  QB, MIC of PE alone: 0.24 weight percent and 0.40 weight percent
[6]; day 1 of incubation
  QB, MIC of PE alone: 0.36 weight percent and 0.33 weight percent and 0.48 weight percent
[6]; day 2 of incubation
  QB, MIC of PE alone: 0.48 weight percent and 0.36 weight percent and 0.43 weight percent
[3]; S. aureus, day 2 of incubation, plates 124D, 219D
  QB, MIC of PE alone: 0.73 weight percent and 0.55 weight percent
[4]; [7]
  QB, MIC of PE alone: 0.22 weight percent and 0.27 weight percent and 0.23 weight percent
[4]; [8]
  QB, MIC of PE alone: 0.22 weight percent and 0.27 weight percent and 0.30 weight percent

## CC1(C)C(=O)N(CO)C(=O)N1CO [DMDMH, DMDM Hydantoin, reference compound]
[1]; DMDM hydantoin alone (QB) or in combination with CHDM (b), plate 196C, day 3
  QB/b: 0.14
[2]; DMDM hydantoin alone (QB) or in combination with CHDM (b), plate 150E, day 1
  QB/b: 0.049
[4]; DMDM hydantoin alone (QB) or in combination with CHDM (b), plate 241B, day 2
  QB/b: 0.22
[4]; DMDM hydantoin alone (QB) or in combination with CHDM (b), plate 241B, day 3
  QB/b: 0.22
[4]; DMDM hydantoin alone (QB) or in combination with CHDM (b), plate 244B, day 2
  QB/b: 0.36
[4]; DMDM hydantoin alone (QB) or in combination with CHDM (b), plate 244B, day 3
  QB/b: 0.36
[4]; DMDM hydantoin alone (QB) or in combination with CHDM (b), plate 263B, day 2
  QB/b: 0.45
[4]; DMDM hydantoin alone (QB) or in combination with CHDM (b), plate 263B, day 3
  QB/b: 0.80
[4]; DMDM hydantoin alone (QB) or in combination with CHDM (b), plate 264B, day 2
  QB/b: 0.34
[4]; DMDM hydantoin alone (QB) or in combination with CHDM (b), plate 264B, day 3
  QB/b: 0.60
